Measured values published in patent US20230218618A1, “ADMINISTRATION OF SUMO-ACTIVATING ENZYME INHIBITOR AND ANTI-CD38 ANTIBODIES” (MILLENNIUM PHARMACEUTICALS, INC., priority 2020, published 2023).

Tests used:
[1] = tested on: NCI-H929 human multiple myeloma cell line; experiment: Study 5: NCI-H929 xenograft human multiple myeloma subcutaneous tumor model; assay type: in vivo, SCID mice; details: for Tumor growth compared to vehicle (pairwise comparison): I-263a 7.5 mg/kg BIW 2 weeks (p > 0.05), daratumumab 2.5, 7.5 or 20 mg/kg BIW 2 weeks alone or combined with I-263a (p < 0.001); for GRI%: vs vehicle
Protocol: (§1) Low tumor volumes can cause problems with the data analysis, so all measurements below 25 cubic mm (including 0 values) were excluded from the analysis. After this exclusion step, the tumor volume was assumed to follow an exponential growth model. More specifically, for a given animal and treatment group,
(§2) Pairwise comparisons were performed, where the mean growth rates were compared for various pairs of treatment conditions. The results were summarized using the growth rate inhibition (GRI). Suppose µT and µC are the mean tumor growth rates for the treatment and reference groups, respectively. Define
(§3) Here, µAB, µA, µB, and µControl are the mean growth rates for the combination, drug A, drug B, and control groups, respectively. As before, µv is the mean tumor growth rate for the vehicle group, which in most cases is the same as the control group. The standard error of the synergy score was calculated as the square root of the sum of squared standard errors across the four groups. The degrees of freedom were estimated using the Welch-Satterthwaite equation. A hypothesis test was performed to determine if the synergy score differed from 0. P-values were calculated by dividing the synergy score by its standard error and tested against a t-distribution (two-tailed) with the above-calculated degrees of freedom. A P value of less than 0.05 is statistically significant.
(§4) The combination results can be interpreted as follows. Statistically significant negative synergy scores indicate a synergistic combination (“Syn.”). Statistically significant positive synergy scores indicate a sub-additive combination (“Sub-add.”) when the combination performs better (i.e. has a lower growth rate) than the best performing single agent. Statistically significant positive synergy scores indicate an antagonistic combination (“Antag.”) when the combination performs worse than the best performing single agent. Scores that are not statistically significant should be considered additive (“Add.”).
(§5) NCI-H929 is a human multiple myeloma cell line. A NCI-H929 human xenograft tumor model was generated by subcutaneous inoculation with 1.0 × 10^7 NCI-H929 cells (cell suspension) in 7 weeks old female SCID mice (Vital River Laboratory Animal Technology Co., Ltd, Beijing, China) in the flank. When the mean tumor volume reached approximately 180 mm^3, the animals were randomized into one vehicle control and seven treatment groups (n=10/group). Mice were then dosed with 20% HPβCD or Compound I-263a or daratumumab over a 14-day period. Tumor growth and body weight were measured twice per week during the treatment and post-treatment periods, and mice were humanely euthanized once they had reached their humane endpoint.
(§6) A 1.5 mg/mL stock solution of I-263a was formulated weekly in 20% HPβCD and administered IV based on exact animal body weight on each day of treatment, using a dosing volume of 5 mL/kg body weight. Final dose I-263a received was 7.5 mg/kg. I-263a was administered on a BIW schedule for 2 weeks (Days 0, 3, 7, and 10). Daratumumab (anti-CD38 antibody) (Janssen Biotech, Inc., Horsham, PA) was stored at 4° C. according to manufacturer’s instructions. Final dose daratumumab received was 2.5 mg/kg, 7.5 mg/kg, and 20 mg/kg based on average body weight. Daratumumab was administered intraperitoneally (IP) using a 0.1 mL dosing volume, on a BIW schedule for 2 weeks (Days 0, 3, 7, and 10).
(§7) Tumors were measured twice weekly using Vernier calipers. Tumor volumes were calculated using standard equation: V = W^2 × L/2, where V = volume, W = width, and L = length for the tumor. When mean tumor volumes reached approximately 180 mm^3, mice were randomized into control and treatment groups. Mice were randomized into 8 groups (n=8/group) and dosed with vehicle (20% HPβCD), I-263a, daratumumab, or the combination of I-263a plus daratumumab at doses and schedules as described above. Tumor size and body weight were measured twice a week for the duration of the study. […]

[2] = tested on: MOLP-8 human multiple myeloma cell line; experiment: Study 4: MOLP-8 xenograft human multiple myeloma subcutaneous tumor model; assay type: in vivo, SCID mice; details: for Tumor growth compared to vehicle (pairwise comparison): I-263a 7.5 mg/kg BIW 2 weeks (p < 0.05 as printed), daratumumab 2.5, 7.5 or 20 mg/kg (p < 0.01; p < 0.01; p < 0.001), I-263a with daratumumab 2.5, 7.5 or 20 mg/kg (p < 0.001); for GRI%: vs vehicle
Protocol: as §1, §2, §3, §4
as §5, with “MOLP-8” for “NCI-H929”, “4.0” for “1.0”, “10^6 MOLP-8” for “10^7 NCI-H929”, “14” for “7”, “170” for “180”, “(n=8/group).” for “(n=10/group).”
as §6, with “A 0.75” for “A 1.5”, “of 10” for “of 5”, “(Days 1, 4, 8,” for “(Days 0, 3, 7,”, “and 11).” for “and 10).”, “on exact animal body weight on each day of treatment, using a dosing volume of 10 mL/kg” for “on average”
as §7, with “170” for “180”, “above.” for “above. Tumor size and body weight were measured twice a week for the duration of the study.”

Cc1sc(C(=O)c2cncnc2N[C@@H]2C[C@H](COS(N)(=O)=O)[C@@H](O)C2)cc1[C@@H]1NCCc2ccc(Cl)cc21 [Compound I-263a, [(1R,2S,4R)-4-{[5-({4-[(1R)-7-chloro-1,2,3,4-tetrahydroisoquinolin-1-yl]-5-methyl-2-thienyl}carbonyl)pyrimidin-4-yl]amino}-2-hydroxycyclopentyl]methyl sulfamate]
Tumor growth compared to vehicle (pairwise comparison) [1]: not significantly different from vehicle
Tumor volume on Day 14 (± SEM) ([1]; I-263a 7.5 mg/kg BIW IV): 1763.8 ± 187.6
GRI% ([1]; I-263a 7.5 mg/kg BIW IV): 6%
Tumor growth compared to vehicle (pairwise comparison) [2]: not significantly different
Tumor volume on Day 14 (± SEM) ([2]; I-263a 7.5 mg/kg BIW IV): 2500.8 ± 106.6
GRI% ([2]; I-263a 7.5 mg/kg BIW IV): 3%

Daratumumab: immunoglobulin G1 kappa (IgG1κ) human monoclonal antibody against CD38 antigen
Tumor volume on Day 14 (± SEM) ([1]; Daratumumab 2.5 mg/kg BIW IP): 999.5 ± 187.7
GRI% ([1]; Daratumumab 2.5 mg/kg BIW IP): 37%
Tumor volume on Day 14 (± SEM) ([1]; Daratumumab 7.5 mg/kg BIW IP): 838.3 ± 142.8
GRI% ([1]; Daratumumab 7.5 mg/kg BIW IP): 45%
Tumor volume on Day 14 (± SEM) ([1]; Daratumumab 20 mg/kg BIW IP): 656.2 ± 127.2
GRI% ([1]; Daratumumab 20 mg/kg BIW IP): 54%
Tumor growth compared to vehicle (pairwise comparison) [1]: significantly inhibited tumor growth curves
Tumor volume on Day 14 (± SEM) ([2]; Daratumumab 2.5 mg/kg BIW IP): 2047.4 ± 83.4
GRI% ([2]; Daratumumab 2.5 mg/kg BIW IP): 11%
Tumor volume on Day 14 (± SEM) ([2]; Daratumumab 7.5 mg/kg BIW IP): 1653 ± 158.5
GRI% ([2]; Daratumumab 7.5 mg/kg BIW IP): 20%
Tumor volume on Day 14 (± SEM) ([2]; Daratumumab 20 mg/kg BIW IP): 1250.6 ± 108.6
GRI% ([2]; Daratumumab 20 mg/kg BIW IP): 28%
Tumor growth compared to vehicle (pairwise comparison) [2]: significantly inhibited growth curves
